Results as given in patent US10119972B2, “Reactive labelling compounds and uses thereof” (Academia Sinica, priority 2014, dated 2018).
Entries after “also recorded” stand apart in the source; their conditions may differ.

Columns and labels:
CL1-5 cells = assay: Dual fluorescence labeling in cells (SPAAC with CuAAC), confocal microscopy; assay type: cell-based; conditions: CL1-5 cells with Ac4ManNAl and Ac4GlcNAz; 100 μM coumOCT, 0.1 μM AzBOCEt
Method: A dual-labeling experiment was performed using SPAAC in combination with CuAAC for the concurrent fluorescence labeling of two different metabolically incorporated glycoconjugates. Peracetylated N-acetylmannosamine (Ac4ManNAc) and peracetylated N-acetylglucosamine (Ac4GlcNAc) were employed as the control sugars. ManNAc is converted metabolically to sialic acid that is found as a terminal monosaccharide of glycoproteins and glycolipids in cell, whereas GlcNAz is an internal monosaccharide that abundant in the N- and O-linked glycans produced in the endoplasmic reticulum and Golgi. CL1-5 cells were incubated in the presence of both alkyne-containing sugar (Ac4ManNAl) and azido-containing sugar (Ac4GlcNAz) for three days. The cells were stained by SPAAC with coumOCT (for azido sugars), followed by CuAAC with AzBOCEt^6j (for alkynyl sugars), and investigated by confocal microscopy (FIG. 24).
(A) Illustration of the cell labeling experiments using Ac4ManNAl, Ac4GlcNAz, 101 and AzBOCEt. CL1-5 cells were incubated with 100 μM of Ac4ManNAl and Ac4GlcNAz or control sugars (Ac4ManNAc and Ac4GlcNAc) for 3 days, which were treated with 100 μM of probe 101 for 0.5 h under SPAAC conditions, and then incubated with 0.1 μM of AzBOCEt for 1 h under CuAAC conditions. (B) Dual fluorescence imaging in CL1-5 cells. […]

[1] = Stability in presence of 3-mercaptopropionic acid by 1H-NMR; assay type: physicochemical; conditions: 25 mM in CDCl3 with 3-mercaptopropionic acid (32 mM), 25° C., 24 h
Method: A potential problematic side reaction of cyclooctynes is the addition with proteinic or endogenous thiols to the corresponding vinyl sulfides. To test whether potential non-specific stainings of 101 and the corresponding triazole 111 may occur due to additions of the SH groups to the triple bond or double bond by proteinic or endogenous thiols, the experiment was performed by incubation of 101 and 111 with 3-mercaptopropionic acid in CDCl3 (FIGS. 25 and 26).
A solution of compound 101 and compound 111 (25 mM in CDCl3) was incubated with a solution of 3-mercaptopropionic acid (32 mM in CDCl3) at room temperature (25° C.).
FIG. 25 show ^1H-NMR spectrum in CDCl3 of compound 101 and 3-mercaptopropionic acid alone, and ^1H-NMR spectrum of compound 101 was treated with 3-mercaptopropionic acid at 25° C. for 0 h, 2 h and 24 h.

[2] = Absorption and fluorescence spectroscopy under simulated physiological conditions; assay type: physicochemical; conditions: for Absorption (λmax, nm) / Stokes shift / Emission (λmax, nm) / ε (M^−1cm^−1), extinction coefficient / Φf, fluorescence quantum yield: PBS buffer containing 10% DMSO, pH 7.4; for Emission (λmax, nm): excitation at 330 nm; for ε (M^−1cm^−1), extinction coefficient: measured at 330 nm; for Φf, fluorescence quantum yield: quinine sulfate (Φf = 0.54 ± 0.03) as standard; for increase in quantum yield compared to unreacted 101: triazole product vs 101
Method: Formation of triazoles 111 and 112 were accompanied by a significant increase in fluorescence intensity with a large Stokes shift into a standard range for coumarin emission (FIG. 16a).
FIG. 16 describes (a) Absorption and Fluorescence emission spectra (λex=330 nm) of 101 (black), 111 (blue) and 112 (red) (45 μM, PBS buffer containing 10% DMSO, pH 7.4). (b) Time course of normalized fluorescence intensity at 435 nm (λex=330 nm) for the ligation reaction of 101 (30 μM) with N-azidoacetylmannosamine (30 μM) in PBS buffer containing 10% DMSO.

SMILES | localization of labeled glycoconjugates (CL1-5 cells) | thiol-yne or thiol-ene addition / stability in the presence of thiols [1] | Absorption (λmax, nm) [2] [nm] | Stokes shift [2] [cm⁻¹] | Emission (λmax, nm) [2] [nm] | ε (M^−1cm^−1), extinction coefficient [2] [M⁻¹ cm⁻¹] | Φf, fluorescence quantum yield [2] | increase in quantum yield compared to unreacted 101 [2] [fold]
CCOC(=O)C1=C(C)C2=C(c3cc(N=[N+]=[N-])ccc3OC)c3c(C)c(C(=O)OCC)c(C)n3[B-](F)(F)[N+]2=C1C [Az10, 8-(5-Azido-2-methoxyphenyl)-2,6-diethoxycarbonyl-4,4-difluoro-1,3,5,7-tetramethyl-4-bora-3a,4a-diaza-s-indacene] | observed clearly on the cell surface and partially in the cytosol |  |  |  |  |  |  | 
O=c1ccc2cc3c(cc2o1)-c1nnn(Cc2ccccc2)c1CCCC3 [Compound 111, 10-Benzyl-6,7,8,9-tetrahydro-cyclooctatriazolo[5,4-g]chromen-2(2H)-one] |  | inactive; also recorded: high stability | 328 | 7500 | 435 | 12200 | 0.23 | 20
O=C(Cn1nnc2c1CCCCc1cc3ccc(=O)oc3cc1-2)NC1C(O)OC(CO)[C@@H](O)C1O (stereo partly drawn) [Compound 112, N-[2-(11-Oxo-4,6,7,11-tetrahydrochromeno[7′,6′:3,4]cycloocta[1,2-d][1,2,3]triazol-3(5H)-yl)]acetamido-2-deoxy-α,β-D-mannopyranose] |  |  | 330 | 7320 | 435 | 10800 | 0.21 | 20
